The text below walks through data of US20190008797A1, “ESTROGEN RECEPTOR ALPHA COLIGANDS, AND METHODS OF USE THEREOF” (priority 2016, published 2019).

Entries after “also recorded” stand apart in the source; their conditions may differ. Like-named read-outs stand apart in the source and are kept apart here.

The target in one assay is T1, hPR-B (Homo sapiens, UniProt P06401).
T1 construct: expressed in transfected cells; host or cells: U2OS
T1 sequence (P06401 1-933): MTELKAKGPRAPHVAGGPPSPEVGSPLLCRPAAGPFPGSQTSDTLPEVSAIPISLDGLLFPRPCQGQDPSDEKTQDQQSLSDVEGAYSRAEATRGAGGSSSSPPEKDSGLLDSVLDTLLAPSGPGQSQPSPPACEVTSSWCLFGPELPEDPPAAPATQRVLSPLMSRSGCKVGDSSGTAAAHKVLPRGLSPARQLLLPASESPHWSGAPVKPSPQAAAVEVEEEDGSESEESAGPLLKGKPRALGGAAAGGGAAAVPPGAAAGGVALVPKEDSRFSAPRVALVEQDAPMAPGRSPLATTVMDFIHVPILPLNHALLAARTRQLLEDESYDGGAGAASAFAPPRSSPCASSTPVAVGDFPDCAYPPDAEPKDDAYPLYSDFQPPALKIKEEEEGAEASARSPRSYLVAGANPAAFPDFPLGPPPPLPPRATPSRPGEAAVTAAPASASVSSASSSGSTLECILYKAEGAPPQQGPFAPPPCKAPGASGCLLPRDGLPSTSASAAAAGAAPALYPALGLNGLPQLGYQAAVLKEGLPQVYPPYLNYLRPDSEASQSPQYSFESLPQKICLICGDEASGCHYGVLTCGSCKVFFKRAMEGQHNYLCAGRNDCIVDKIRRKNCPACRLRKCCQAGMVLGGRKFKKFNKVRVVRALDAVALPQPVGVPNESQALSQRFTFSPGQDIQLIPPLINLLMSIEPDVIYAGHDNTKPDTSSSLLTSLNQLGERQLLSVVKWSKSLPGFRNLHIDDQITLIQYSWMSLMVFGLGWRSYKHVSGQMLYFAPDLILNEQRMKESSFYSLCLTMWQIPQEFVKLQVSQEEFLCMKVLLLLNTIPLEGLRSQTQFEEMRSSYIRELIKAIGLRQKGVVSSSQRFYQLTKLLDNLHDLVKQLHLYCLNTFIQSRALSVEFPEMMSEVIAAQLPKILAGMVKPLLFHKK
The assay is described as follows: TAT3-luciferase reporter, U2OS cells cotransfected with hPR-B. Type of assay: cell-based. The note with it: 5 μM + 10 nM progesterone, 24 hours. (In a reporter assay the amount or activity of a reporter protein is the signal.)

The subject of assay [1] is MCF-7 cells. Kind of assay: Flow cytometry of cellular DNA content in MCF-7 cells. Type of assay: cell-based, human. As to conditions: for IC50: Homo sapiens, MCF7, 24 h. How it is done: The cells were then washed with PBS, detached with trypsin and collected by centrifugation. The cell pellets were washed with cold PBS followed by centrifuge at room temperature and re-suspended in 500 μl PBS containing […] propidium iodide, 0.1% of Triton™ X-100, 0.1% of sodium citrate, and 10 μg/ml of RNase. Samples were then run on Cytomics™ FC-500 (Beckman Coulter) in the cell cytometry facility at UC Berkeley and data was analyzed using FlowJo 7.6.5.

Assay [2] deals with mouse uterus. The assay is described as follows: Uterine weight in intact female mice. Type of assay: in vivo. The note with it: intact C57BL/6 female mice, daily intraperitoneal injection. How it is done: (§1) 8 week old C57b1/6J female ovariectomized or intact mice were purchased from Jackson Laboratories, Sacramento, Calif. Mice were housed and maintained according to OLAC standard procedures in the NAF facility at UC Berkeley, Calif. All mice were fed a soy-free chow diet 2916.15 (Harlan Laboratories, Livermore, Calif.) starting one week before osmotic pump implantation or 2′, 3′, 4′-THC injection. Pumps Model 2006 were purchased from Alzet and filled with vehicle, 1 μg […], 2 mg of 2′, 3′, 4′-THC or the combination of 2′, 3′, 4′-THC and estradiol. All drugs were dissolved in sterile vehicle consisting of 50% dimethylsulfoxide (DMSO), 25% ETOH and 25% deionized water. Pumps were handled with sterile gloves and filled using a 27 gauge filling tube and 1 mL syringe. All pumps were placed in 1X PBS in 15 mL sterile conical tubes and incubated overnight at 37° . Pumps were surgically implanted into 8 week old C57b1/6J female ovariectomized mice (Jackson Laboratory, Sacramento, Calif.) posterior to the scapula and left for a duration of 4 weeks. Intact mice were injected intraperitoneal with 2′, 3′, 4′-THC every day for 3 weeks. Mice were weighed once a week for the duration of the experiment. The intraperitoneal gonadal fat was removed and weighed. Uterine tissue was collected, fluid drained and then weighed.
FIGS. 5a-5h. 2′, 3′, 4′-THC acts as antagonist in the mouse uterus. […]

The subject of assay [3] is mouse uterus. The assay is described as follows: Ovariectomized (OVX) mouse model, osmotic pump. As to conditions: OVX mice. The assay is classed as in vivo. How it is done: as §1
Tissues were dissected and immediately frozen in liquid nitrogen. Before RNA isolation, tissues were homogenized in PureZOL™ using the MP FastPrep™-24 for 40 seconds.
Uterine Tissue Slide Preparation Uterine tissue was removed and trimmed of excess adipose tissue. Tissues were fixed in formalin for 24 hours then transferred to 50% ETOH for 1 hour followed by 70% ethanol (ETOH) for another hour. After fixation tissues were sent to Histopathology Reference Laboratory, Hercules Calif. where they were paraffin embedded, sectioned and stained with hematoxylin and eosin for morphological exam
FIGS. 5a-5h. 2′, 3′, 4′-THC acts as antagonist in the mouse uterus. Uterine weights of intact (FIG. 5a) and OVX (FIG. 5b) mice. […] (FIG. 5h) Total body weight of OVX mice after 4 week treatment. Error bars are ±SEM.

In assay [4] the test system is MCF-7 cells. The assay is described as follows: ERE-TK-Luc transfection assay in MCF-7 cells. As to conditions: 1, 5 or 10 μM + 10 nM E2.
The next assay relates to c-MYC. The assay is described as follows: c-MYC mRNA (real-time PCR) and protein (Western blot) in MCF-7 cells. The note with it: greater than tamoxifen.

Usually IC50 stands for the midpoint of a concentration-inhibition curve. Turning to `O=C(/C=C/c1ccccc1)c1ccc(O)c(O)c1O` [2′, 3′, 4′-THC, 2′, 3′, 4′-trihydroxychalcone], on hPR-B, the “synergy with receptor agonist” value is reported as “no synergy”. The “effect on E2-treated cells by DNA content / cell cycle” value with MCF-7 cells [1] (24 hours) was “anti-proliferative action; also recorded: G1 cell cycle arrest”. Besides, the IC50 with MCF-7 cells [1] (read-out: IC50 for inhibition, G1 phase (cellular DNA content)) amounted to 2900 nM. The half-inhibitory concentration (IC50) with MCF-7 cells [1] (read-out: IC50 for inhibition, S-phase (cellular DNA content)) was determined as 2600 nM. Moreover, the “reduction of uterine growth compared to the control mice” value with mouse uterus [2] was 50%. Moreover, in the assay on mouse uterus [3] (combination with E2, 4 weeks), the “H & E staining of uterus, effect on E2 response” value is “inhibited the proliferative response”; the “effect on E2-induced increase in uterine weight” value is “blocked”; the “effect on E2-induced increased uterine mRNA for LCN2” value is “antagonist effect”; the “effect on E2-induced increased uterine mRNA for LTF” value is on record as “antagonist effect”. In addition, in the assay with mouse uterus [3] (combination with E2, 4 weeks), the “effect on E2-induced increased uterine mRNA for SA100A9” value is on record as “antagonist effect” and the “effect on E2 decrease of gonadal adipose tissue fat” value is given as “not blocked”. For the same molecule, the “uterine size / uterine weight, compound alone” value with mouse uterus [3] (osmotic pump, 4 weeks) is “did not increase”. For the same molecule, the “E2 activation of ERE-TK-Luc” value in the assay on MCF-7 cells [4] was “dose-dependent synergistic increase”. In addition, the “effect on E2-stimulation of c-MYC mRNA” value in the assay with c-MYC (5 μM + 10 nM E2, 4 hours) was “inhibited”. For the same molecule, in the assay with c-MYC (increasing doses + 10 nM E2, 1 hour), the “effect on E2-stimulation of c-MYC protein levels” value is “inhibited”.
